Experimental data: patent publication US20070009571A1, “Novel haptotactic peptides” (Hadasit Medical Research Services & Development Ltd., priority 1998, published 2007)
“Also recorded” adds a separate entry of the source. No end group written: not given here.

Experiments:
cells such as HF or BAEC = test: FACS competition and uptake experiments with Cβ-FITC; assay type: cell-based; design: dose or concentration left out as unconfirmed; details: preincubation with unlabeled Cβ for 15 mins
Experimental: (§1) In competition experiments, cells were incubated with various concentrations of unlabeled Cβ (SEQ ID NO:1) for 15 mins, an aliquot of Cβ^FITC (4 mM) was added and the sample was subjected to FACS analysis. […] The Cβ^FITC (SEQ ID NO:1) uptake experiments best fitted a linear-quadratic curve-fit.

HF [1] = test: Chemotaxis, micro-Boyden chamber assay; assay type: cell-based, human; details: compared with BAEC
Experimental: (§2) Chemotaxis was evaluated using 48-well plastic Microtaxis micro-Boyden chambers. Polycarbonate filters with pore size of 8 μm were coated with fibronectin for 2 hours at 37° C. Conditioned medium from 3T3 cells served as a positive control. Test solution (26 μl) containing the tested peptides or protein or medium with no additions that served as control were placed in the lower chamber, covered with the filter. 50 μl cell suspension was introduced to the upper chamber of each well. The number of cells/well varied in the range of 5,000-10,000 in different experiments. The device loaded with cells was incubated at 37° C. for 4-5 hours. The filter was then removed and the non-migrating cells on its upper part were carefully wiped off with a damp cotton swab. The filter was fixed in methanol and stained with Accustain (modified Wright stain solution Sigma Diagnostics: St. Lois, Mo.). Cells that crossed or were retained within the filter were counted microscopically at low magnification so that the viewing field corresponded to the whole area of each well. Each experimental variant was performed in duplicated or triplicates and the data from, three successful experiments were normalized to the values of the positive control and averaged.
The chemotactic response of BAEC to a soluble gradient of Cα (SEQ ID NO:1), the most haptotactic of the peptides studied was as follows. […]

tested cell lines = test: Haptotaxis assay, statements over the tested cell lines; assay type: cell-based; details: ligands covalently bound to SB; for haptotactic response / cell binding to SB-ligand, in words: near confluent cell cultures
Experimental: (§3) Peptides or fibrinogen were covalently bound to CNBr activated sepharose beads (SB) (Pharmacia, Piscataway, N.J.) using techniques previously used to bind albumin, fibrinogen and thrombin. Briefly, CNBr-activated sepharose 4B (Pharmacia) was washed with 1N HCl, and suspended in the coupling buffer (pH 8.3), following the protocol supplied by the manufacturer. The peptides were dialyzed against the coupling buffer to remove Tris. Peptides (1 mg) were not highly water soluble. The peptides were dissolved in 1 mL 70% ethanol or dimethylformamide, and were then mixed into the coupling buffer containing 1 mL CNBr-activated sepharose. The suspension was gently agitated overnight, then centrifuged 500×g to pack the beads. This procedure covalently binds more than 95% of proteins or peptides including fibrinogen or peptides-CαE (SEQ ID NO:3), Cβ (SEQ ID NO:1) and preCγ (SEQ ID NO:2) to the beads determined by Abs280 readings of the solutions.
(§4) The migratory/adhesion response of cells to proteins (such as fibrinogen) or peptides covalently bound to SB was measured as follows. Cells were grown in 6 or 12 well plates to near confluence or in suspension until they covered about ½ to ⅔ of the plate surface. At that point, about […] of a suspension containing 50% v/v SB coated with the test protein or peptide were added to the plate and dispersed by gentle shaking for 1 min. The plate was then returned to the incubator and examined at different times by inverted phase microscopy.
(§5) The SB (naked or ligand bound) sedimented onto the nearly confluent cell layer and occasionally made physical contact with cell membranes on the plate (ascribed to Brownian motion or micro-convection currents). […] Typically, 300 beads (but not less then 200) were counted in each well and the ratio of SB bound to the cells relative to total number SB could be calculated (SB bound/SB total). Counting the percentage of SB attached to the cell surface at different time intervals provided a quantitative assay of the kinetics of the attachment of coated beads to cells. Negative control with uncoated SB or positive controls with SB-fibrinogen were employed with at least 3 wells measured for each. The statistical error was calculated from the square root of the total counts.
(§6) The peptides of the present invention were synthesized and tested in cell culture systems as described above. Essentially, peptides were covalently attached to sepharose beads to form SB-Cα (SEQ ID NO:4), SB-Cβ (SEQ ID NO:1), SB-PreCγ (SEQ ID NO:2), SB-Cγ (SEQ ID NO:5) and SB-CαE (SEQ ID NO:3), respectively, as was fibrinogen to form SB-Fib. The SB-peptide combination was then incubated with cultured cells. […] The haptotactic potency of the peptides is summarized in Table 3 with the percentage of SB-Fib/peptide attached to cells (by day 4) given in columns 2-5 of Table 3.

HF cells = test: FACS analysis of binding of FITC-labeled peptides; assay type: cell-based, human; details: 100 μg/ml, medium with 0.1% albumin
Experimental: (§7) EC and HF cell monolayers were washed and then incubated with trypsin-versene. Cells were then washed with growth medium and resuspended in medium with 0.1% albumin. FITC-labeled peptide-Cβ (SEQ ID NO:1) was incubated with 5×10^5 EC cells (10 μg/ml or 100 μg/ml) or with 2.5×10^5 HF cells (100 μg/ml) in medium with 0.1% albumin. FITC-labeled peptide-CαE (SEQ ID NO:3) and Cα (SEQ ID NO:4) (10 μg/ml) was incubated with 5×10^5 EC cells in medium with 0.1% albumin. Cells were then washed with PBS and 1% albumin. Cells were resuspended in PBS and 1% albumin and then filtered through a mesh for FACS analysis, in which the FITC tluorescence was measured for each cell.
(§8) The control is without FITC-labeled peptide (background fluorescence).
as §1

[2] = system: bovine aortic endothelial cells (EC, BAEC); test: Haptotaxis assay: attachment of ligand-coated SB to cultured cells; assay type: cell-based; details: for % Binding of peptide-coated SB to normal cultured cells: percentage of SB-ligand attached to cells by day 4
Experimental: as §3, §4, §5, §6

HF [3] = test: Cell proliferation, MTS assay; assay type: cell-based, human; details: 0.4 nM-4 μM, 96 well plates
Experimental: Cell proliferation was evaluated by measuring cell density as a function of time by two different colorimetric assays. The MTS colorimetric assay (CellTitre 96 Aqueous Assay by Promega) is based on dehydrogenase conversion of MTS (methyl tetrazolium salt) by viable cells to […] (Ge M. Tang, G., Ryan. T. J. and Malik. A. B., “Fibrinogen degradation product fragment D induces endothelial cell detachment by activation of cell-mediated fibrinolysis”, J. Clin. Inves., 90:2508-2516 (1992)); the methylene blue (MB) assay is based on the staining of monolayer cells after their fixation, and reading the absorbence of the absorbed dye.
The MTS assay for viable cells was performed as follows: 30 μL of freshly prepared MTS/PMS were added to each well; following 2 hrs incubation at 37° C., the plates were placed on a computer driven microplate reader (Anthos HT-II, Salzburg, Austria), programmed to shake the plate for 1 minute before reading the optical density (OD) of the dye at 490 nm. The measurements were repeated following 4 and 6 hours of incubation.
Peptides (Cα (SEQ ID NO:4), […], PreCγ (SEQ ID NO:2) and CαE (SEQ ID NO:3)), up to 1 μg/mL or 100 μg/mL fibrinogen or thrombin (final concentrations) were added to the culture medium and cell numbers were assayed by day 3 using the MTS assay. The change in cell number was compared with that observed versus saline control. Of the 5 peptides tested at dosages up to 10 μg/mL (approximately equimolar to 1 μg/mL fibrinogen), none of the peptides exerted significant effect on cell proliferation (FIG. 7).

EC cells (BAEC) = test: FACS analysis of binding of FITC-labeled peptides; assay type: cell-based, bovine; details: 10 μg/ml or 100 μg/ml, medium with 0.1% albumin
Experimental: as §7, §8, §1

BAEC = test: Chemotaxis, micro-Boyden chamber assay; assay type: cell-based, bovine; details: up to 40 μg/ml
Experimental: as §2
The chemotactic response of BAEC to a soluble gradient of […], the most haptotactic of the peptides studied was as follows. The results can be seen in FIG. 6. […] A similar, though more moderate, chemotaxis response to Cβ (SEQ ID NO:1) was obtained with HF.

[4] = system: normal human skin fibroblasts (HF); test: Haptotaxis assay: attachment of ligand-coated sepharose beads (SB) to cultured cells; assay type: cell-based; details: for % Binding of peptide-coated SB to normal cultured cells: percentage of SB-ligand attached to cells by day 4
Experimental: as §3, §4, §5, §6

[5] = system: human ovarian carcinoma cells (OV-1063); test: Haptotaxis assay: attachment of ligand-coated SB to cultured cells; assay type: cell-based; details: percentage of SB-ligand attached to cells by day 4
Experimental: as §3, §4, §5, §6

[6] = system: normal human keratinocytes; test: as above; assay type: cell-based; details: Keratinocyte; percentage of SB-ligand attached to cells by day 4
Experimental: as §3, §4, §5, §6

[7] = system: murine mammary adenocarcinoma cells (EMT-6); test: as above; assay type: cell-based; details: for % Binding of peptide-coated SB to normal cultured cells: percentage of SB-ligand attached to cells by day 4
Experimental: as §3, §4, §5, §6

[8] = system: porcine smooth muscle cells (SMC); test: as above; assay type: cell-based; details: for % Binding of peptide-coated SB to normal cultured cells: percentage of SB-ligand attached to cells by day 4
Experimental: as §3, §4, §5, §6

[9] = system: normal murine fibroblasts (MF); test: as above; assay type: cell-based; details: for % Binding of peptide-coated SB to normal cultured cells: percentage of SB-ligand attached to cells by day 4
Experimental: as §3, §4, §5, §6

Substance	haptotactic response / cell binding to SB-ligand, in words (tested cell lines)	cell binding / haptotactic response to SB-ligand, in words [2]	number of cell lines bound by SB-ligand out of 7 tested (tested cell lines)	% Binding of peptide-coated SB to normal cultured cells [4]	% Binding of peptide-coated SB to normal cultured cells [2]	% Binding of peptide-coated SB to normal cultured cells [5]	% Binding of peptide-coated SB to normal cultured cells [6]	% Binding of peptide-coated SB to normal cultured cells [7]	% Binding of peptide-coated SB to normal cultured cells [8]	% Binding of peptide-coated SB to normal cultured cells [9]	cell lines excepted from binding to SB-ligand (all other tested lines bound) (tested cell lines)	also measured
KGSWYSMRKMSMKIRPFFPQQ (Equivalent to the c-terminus of fibrinogen beta-chain) [Cβ, haptotactic peptide homologous to the carboxy terminus of the fibrinogen β chain, β 441-461]	highly haptotactic; also recorded: significant haptotactic responses	greatest haptotactic response	–	–	–	–	–	–	–	–	–	effect of unlabeled peptide on uptake of Cβ-FITC (competition) (cells such as HF or BAEC): increased the level of total Cβ; chemotaxis response of HF, in words (HF [1]): more moderate; binding/uptake of FITC-labeled peptide by FACS, in words (HF cells): higher than that of CαE; proliferative response of HF (MTS proliferation assay) (HF [3]): none of these peptides stimulated or inhibited proliferation; binding/uptake of FITC-labeled peptide by FACS, in words (EC cells (BAEC)): higher than that of CαE; also recorded: clearly bound to cells; chemotactic response relative to negative control of 1% BSA serum-free medium (BAEC; BAEC): 3 times; chemotactic response of BAEC, in words (BAEC; soluble gradient, conditioned medium = 100% chemotaxis): highly significant chemotaxis
SB-Cα: peptide-Cα (SEQ ID NO:4) covalently attached to sepharose beads (EADHEGTHSTKRGHAKSRP; also: attached to sepharose beads) [reference compound]	No cell binding	–	none	0%	0%	0%	0%	1%	0%	0%	–	–
SB-CαE: peptide-CαE (SEQ ID NO:3) covalently attached to sepharose beads (RGADYSLRAVRMKIRPLVTQ; also: attached to sepharose beads)	next most potent	strong binding	5	52%	43%	0%	0%	64%	8%	61%	with the exception of OV-1063, keratinocytes and cells derived from a leucocytic lineage	cell binding to SB-ligand, in words [4]: strong binding; cell binding to SB-ligand, in words [7]: strong binding; cell binding to SB-ligand, in words [8]: Weak attachment; cell binding to SB-ligand, in words [9]: strong binding
SB-Cβ: peptide-Cβ (SEQ ID NO:1) covalently attached to sepharose beads (KGSWYSMRKMSMKIRPFFPQQ; also: attached to sepharose beads)	most potent	–	5	100%	94%	4%	0%	99%	100%	89%	with the exception of OV-1063, keratinocytes and cells derived from a leucocytic lineage	–
